The numbers were not newly measured in US6521593B1, “Methods for inhibiting brain tumor growth” (Childrens Hospital Los Angeles, priority 1999, dated 2003), which cites them from elsewhere.

This data set has as its system C6 and 9L rat glioma xenografts. The conditions noted are these: 1 mg/mouse/day; cited from earlier work.

For the substance Angiostatin, the “growth inhibition of intracranial glioma xenografts” value is on record as “considerable growth inhibition”.
